According to ChEMBL document CHEMBL1201862, “PubChem BioAssay data set” (2004):
Calls of active or inactive are those of the source.

Tests used:
[1] = test system: Streptococcus sp. 'group A'; assay: growth inhibition of control SK(-) GAS strain, dose response, counter-screen for streptokinase expression inhibitor project, luminescence, kanamycin, BacTiterGlo, confirmation (AID 1900); type: functional, organism-based
[2] = C. albicans growth with fluconazole, confirmation, fluorescence, retest (AID 2467); type: functional, cell-based
Streptococcus = assay: Group A Streptococcus viability loss, dose response, counter-screen for streptokinase expression inhibitor project, luminescence, BacTiterGlo (AID 1915); type: functional, organism-based;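 further: potency for reduction of bacterial viability or growth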
[3] = NIH-3T3 fibroblast cytotoxicity, dose response, cytotoxicity control, cell-based, fluorescence, Alamar Blue, secondary assay (AID 2327); type: functional;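 further: NIH-3T3 mouse fibroblasts cultured with fluconazole at 8 µg/mL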
[4] = molecular target: T1, Short transient receptor potential channel 4 (Mus musculus, UniProt Q9QUQ5); assay: mouse TRPC4 channel activators, dose response, cell-based, HEK293 TRPC4/mu-opioid, Fluo-4 calcium (AID 434937); type: functional
T1 sequence (Q9QUQ5 whole entry): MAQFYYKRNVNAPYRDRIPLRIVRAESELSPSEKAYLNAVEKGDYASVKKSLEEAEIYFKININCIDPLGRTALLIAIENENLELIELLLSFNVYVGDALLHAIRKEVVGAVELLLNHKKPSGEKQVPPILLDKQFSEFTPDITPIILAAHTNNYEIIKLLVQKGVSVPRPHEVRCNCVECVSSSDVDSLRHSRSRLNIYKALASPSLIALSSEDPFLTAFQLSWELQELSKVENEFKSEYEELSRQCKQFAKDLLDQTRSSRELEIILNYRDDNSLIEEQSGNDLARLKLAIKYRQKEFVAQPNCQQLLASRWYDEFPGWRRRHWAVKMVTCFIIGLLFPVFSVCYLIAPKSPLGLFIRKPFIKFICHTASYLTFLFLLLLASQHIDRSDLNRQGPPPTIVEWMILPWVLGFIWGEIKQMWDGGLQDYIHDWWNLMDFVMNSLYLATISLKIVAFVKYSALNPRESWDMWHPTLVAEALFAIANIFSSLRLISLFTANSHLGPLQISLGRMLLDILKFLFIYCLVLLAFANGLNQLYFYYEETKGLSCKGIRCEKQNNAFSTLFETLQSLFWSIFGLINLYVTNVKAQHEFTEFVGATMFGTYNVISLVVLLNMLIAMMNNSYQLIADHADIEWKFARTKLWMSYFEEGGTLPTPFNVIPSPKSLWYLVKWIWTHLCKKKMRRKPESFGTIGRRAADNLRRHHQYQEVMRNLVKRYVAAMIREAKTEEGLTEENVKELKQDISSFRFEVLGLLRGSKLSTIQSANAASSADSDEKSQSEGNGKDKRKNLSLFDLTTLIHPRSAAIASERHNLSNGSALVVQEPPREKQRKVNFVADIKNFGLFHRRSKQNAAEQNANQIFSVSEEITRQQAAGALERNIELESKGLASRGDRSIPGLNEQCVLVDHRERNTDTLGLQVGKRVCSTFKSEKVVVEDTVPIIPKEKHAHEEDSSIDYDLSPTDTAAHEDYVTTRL

cells = type: functional
[5] = molecular target: T2, Microphthalmia-associated transcription factor (Homo sapiens, UniProt O75030); assay: TRPM1 promoter luciferase signal decrease, dose response, MITF inhibitor project, cell-based, SK-MEL-5, cherry-picked, set 3 (AID 493073); type: functional
T2 sequence (O75030 whole entry): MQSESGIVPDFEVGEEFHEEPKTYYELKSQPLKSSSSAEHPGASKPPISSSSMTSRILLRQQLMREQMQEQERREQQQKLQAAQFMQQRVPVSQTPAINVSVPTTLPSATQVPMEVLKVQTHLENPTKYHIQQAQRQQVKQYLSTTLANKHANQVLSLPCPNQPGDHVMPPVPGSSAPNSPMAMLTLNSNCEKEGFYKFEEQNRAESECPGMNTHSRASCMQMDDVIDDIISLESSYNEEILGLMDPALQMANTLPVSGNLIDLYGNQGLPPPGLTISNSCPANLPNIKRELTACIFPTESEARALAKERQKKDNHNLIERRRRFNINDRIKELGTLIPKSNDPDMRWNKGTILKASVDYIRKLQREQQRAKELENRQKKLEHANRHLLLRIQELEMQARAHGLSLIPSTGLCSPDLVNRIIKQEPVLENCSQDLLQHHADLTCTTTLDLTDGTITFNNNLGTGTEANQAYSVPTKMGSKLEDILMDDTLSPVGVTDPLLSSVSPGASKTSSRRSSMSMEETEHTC

[6] = A Cell Based Secondary Assay To Explore Cytotoxicity of Compounds that Sensitize Mycobacterium Tuberculosis to Beta-Lactam Antibiotics.; type: functional
INS1 = assay: beta cell apoptosis inhibitors, cytokine rescue, dose response, luminescence, retest (AID 449756); type: functional, cell-based; conditions: Rattus norvegicus, INS1;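 further: cell death triggered by IL-1 beta plus TNF-alpha plus IFN-gamma mixture; protective hits raise ATP signal compared with cytokine alone wells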
[7] = Luminescence Cell-Based Dose Retest to Confirm Inhibitors of Cancer Stem Cells. [Related pubchem assays (depositor defined):AID2717, AID2721]; type: functional; conditions: Homo sapiens
[8] = molecular target: Glyceraldehyde-3-phosphate dehydrogenase (Homo sapiens, UniProt P04406)
Beta-galactosidase = Beta-galactosidase (Escherichia coli, UniProt Q8VNN2); assay: beta-galactosidase enzyme inhibitors and activators, dose response, artefact control for CCR6 antagonist project, biochemical, E. coli enzyme, set 3 (AID 504712); type: functional
[9] = molecular target: Voltage-dependent T-type calcium channel subunit alpha-1H (Homo sapiens, UniProt O95180); type: functional;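 further: channel activity triggered by adding a high calcium stimulation buffer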
[10] = Luminescence Cell-Based Dose Response HTS to Identify Activators of Luciferase Translation or Activity in H4 […] Cells. [Related pubchem assays: 1829 (Project Summary), 1814 (Primary HTS)]; type: functional
H4 = assay: Luminescence Cell-Based Dose Response HTS to Identify Activators of 5'UTR Stem-Loop Driven Prion Protein mRNA Translation in H4 Neuroglioblastoma Cells. [Related pubchem assays: 1829 (Project Summary), 1814 (Primary HTS)]; type: functional; conditions: Homo sapiens
[11] = Luminescence Cell-Based Dose Confirmation HTS to Identify Activators of 5'UTR Stem-Loop Driven Alpha-Synuclein mRNA Translation in H4 Neuroglioblastoma Cells. [Related pubchem assays: 1829 (Project Summary), 1814 (Primary HTS)]; type: functional

Chain of Voltage-dependent T-type calcium channel subunit alpha-1H (O95180 whole entry): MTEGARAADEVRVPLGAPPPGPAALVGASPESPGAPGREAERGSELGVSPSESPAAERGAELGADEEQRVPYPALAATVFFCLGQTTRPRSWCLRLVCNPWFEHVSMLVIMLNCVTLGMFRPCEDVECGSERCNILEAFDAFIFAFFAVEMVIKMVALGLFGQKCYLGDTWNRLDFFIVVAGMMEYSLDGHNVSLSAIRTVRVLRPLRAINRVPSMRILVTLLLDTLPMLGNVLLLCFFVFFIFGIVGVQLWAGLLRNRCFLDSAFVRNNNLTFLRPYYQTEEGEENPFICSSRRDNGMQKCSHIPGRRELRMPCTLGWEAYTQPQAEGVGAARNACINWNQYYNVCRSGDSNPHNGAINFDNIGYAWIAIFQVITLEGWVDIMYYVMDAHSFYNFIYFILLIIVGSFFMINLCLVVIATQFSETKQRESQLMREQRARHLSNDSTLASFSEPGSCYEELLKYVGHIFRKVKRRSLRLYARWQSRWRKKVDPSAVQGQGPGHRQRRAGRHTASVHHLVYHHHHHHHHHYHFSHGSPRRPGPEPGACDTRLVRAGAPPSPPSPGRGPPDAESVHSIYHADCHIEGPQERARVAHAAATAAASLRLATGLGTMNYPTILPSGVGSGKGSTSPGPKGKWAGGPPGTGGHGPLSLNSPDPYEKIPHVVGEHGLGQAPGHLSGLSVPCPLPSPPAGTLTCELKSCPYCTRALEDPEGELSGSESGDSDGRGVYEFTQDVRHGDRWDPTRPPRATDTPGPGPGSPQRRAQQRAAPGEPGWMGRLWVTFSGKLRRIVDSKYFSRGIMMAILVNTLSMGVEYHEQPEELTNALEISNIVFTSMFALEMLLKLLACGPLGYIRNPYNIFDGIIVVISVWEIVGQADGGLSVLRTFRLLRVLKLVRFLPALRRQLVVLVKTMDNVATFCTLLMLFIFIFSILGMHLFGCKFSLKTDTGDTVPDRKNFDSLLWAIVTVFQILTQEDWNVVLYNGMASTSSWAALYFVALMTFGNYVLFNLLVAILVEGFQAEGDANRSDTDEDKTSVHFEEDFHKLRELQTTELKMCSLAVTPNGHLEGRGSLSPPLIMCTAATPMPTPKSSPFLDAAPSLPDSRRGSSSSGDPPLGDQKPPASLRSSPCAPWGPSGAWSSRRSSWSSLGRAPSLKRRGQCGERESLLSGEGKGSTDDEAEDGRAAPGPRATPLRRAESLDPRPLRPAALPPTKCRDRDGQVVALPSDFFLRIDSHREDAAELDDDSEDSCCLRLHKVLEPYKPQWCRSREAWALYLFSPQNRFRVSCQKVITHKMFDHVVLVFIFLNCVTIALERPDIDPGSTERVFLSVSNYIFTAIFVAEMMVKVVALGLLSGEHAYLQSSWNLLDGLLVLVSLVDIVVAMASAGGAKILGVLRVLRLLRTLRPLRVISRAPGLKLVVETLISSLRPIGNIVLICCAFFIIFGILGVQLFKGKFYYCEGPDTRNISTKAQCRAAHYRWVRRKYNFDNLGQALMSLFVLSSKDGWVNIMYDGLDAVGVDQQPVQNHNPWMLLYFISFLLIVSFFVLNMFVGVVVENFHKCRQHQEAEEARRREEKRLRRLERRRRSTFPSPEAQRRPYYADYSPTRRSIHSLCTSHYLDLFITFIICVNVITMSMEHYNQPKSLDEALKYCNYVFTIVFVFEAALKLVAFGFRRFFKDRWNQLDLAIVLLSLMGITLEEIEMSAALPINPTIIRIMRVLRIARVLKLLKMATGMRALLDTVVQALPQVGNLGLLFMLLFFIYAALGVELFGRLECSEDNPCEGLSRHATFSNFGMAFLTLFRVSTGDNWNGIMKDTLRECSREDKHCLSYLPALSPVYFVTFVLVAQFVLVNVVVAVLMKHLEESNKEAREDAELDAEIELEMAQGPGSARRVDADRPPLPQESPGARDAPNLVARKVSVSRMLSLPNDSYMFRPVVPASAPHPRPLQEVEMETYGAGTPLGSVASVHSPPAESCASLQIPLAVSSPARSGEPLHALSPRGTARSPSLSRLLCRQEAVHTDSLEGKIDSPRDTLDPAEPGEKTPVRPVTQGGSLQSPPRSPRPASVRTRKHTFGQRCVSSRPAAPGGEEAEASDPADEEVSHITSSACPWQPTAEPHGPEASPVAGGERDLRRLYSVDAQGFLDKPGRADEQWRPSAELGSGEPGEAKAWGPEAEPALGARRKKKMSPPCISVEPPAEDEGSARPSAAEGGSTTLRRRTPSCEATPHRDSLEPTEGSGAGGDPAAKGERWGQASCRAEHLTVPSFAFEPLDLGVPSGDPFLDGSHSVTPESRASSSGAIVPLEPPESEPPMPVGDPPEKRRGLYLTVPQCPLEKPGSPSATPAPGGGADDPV
Chain of Glyceraldehyde-3-phosphate dehydrogenase (P04406 whole entry): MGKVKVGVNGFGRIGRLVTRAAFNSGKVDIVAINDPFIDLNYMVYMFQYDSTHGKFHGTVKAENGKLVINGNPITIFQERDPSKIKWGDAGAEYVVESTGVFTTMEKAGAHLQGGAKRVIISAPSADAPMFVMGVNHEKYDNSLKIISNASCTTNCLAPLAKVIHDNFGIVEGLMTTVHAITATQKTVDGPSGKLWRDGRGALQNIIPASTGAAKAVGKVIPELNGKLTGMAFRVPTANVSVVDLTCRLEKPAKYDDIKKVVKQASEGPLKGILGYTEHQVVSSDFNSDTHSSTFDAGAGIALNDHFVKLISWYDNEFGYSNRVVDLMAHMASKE
Chain of Beta-galactosidase (Q8VNN2 whole entry): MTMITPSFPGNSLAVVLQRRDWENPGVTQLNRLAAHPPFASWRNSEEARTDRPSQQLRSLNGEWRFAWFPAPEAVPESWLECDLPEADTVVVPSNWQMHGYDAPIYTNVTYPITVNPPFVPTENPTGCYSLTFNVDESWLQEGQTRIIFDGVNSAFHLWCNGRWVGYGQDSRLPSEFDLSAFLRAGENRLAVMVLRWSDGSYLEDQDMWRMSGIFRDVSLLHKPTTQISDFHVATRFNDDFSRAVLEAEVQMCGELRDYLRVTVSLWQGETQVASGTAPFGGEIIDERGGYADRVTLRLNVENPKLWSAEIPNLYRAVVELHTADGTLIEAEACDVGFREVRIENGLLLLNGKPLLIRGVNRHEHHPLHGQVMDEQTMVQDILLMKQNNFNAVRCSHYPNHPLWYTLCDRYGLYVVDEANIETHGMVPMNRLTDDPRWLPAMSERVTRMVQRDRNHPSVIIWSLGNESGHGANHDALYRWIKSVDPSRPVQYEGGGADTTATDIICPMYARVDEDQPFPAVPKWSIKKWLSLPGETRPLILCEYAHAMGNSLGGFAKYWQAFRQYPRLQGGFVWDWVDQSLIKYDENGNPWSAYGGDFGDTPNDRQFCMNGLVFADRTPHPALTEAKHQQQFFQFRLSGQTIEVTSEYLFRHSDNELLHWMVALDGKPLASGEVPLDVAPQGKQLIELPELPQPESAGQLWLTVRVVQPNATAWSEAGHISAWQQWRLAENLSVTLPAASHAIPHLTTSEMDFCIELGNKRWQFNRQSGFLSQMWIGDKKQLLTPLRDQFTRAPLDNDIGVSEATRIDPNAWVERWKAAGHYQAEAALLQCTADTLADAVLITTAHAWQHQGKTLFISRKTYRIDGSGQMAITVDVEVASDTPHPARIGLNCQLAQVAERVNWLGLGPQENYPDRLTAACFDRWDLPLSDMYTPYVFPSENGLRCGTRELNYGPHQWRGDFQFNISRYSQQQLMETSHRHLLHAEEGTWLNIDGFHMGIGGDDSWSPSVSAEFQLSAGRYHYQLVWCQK

With O=C(COc1ccccc1)NNC(=S)NC(=O)c1ccc(Cl)cc1Cl the EC50 [1] was 0.623 µM (active), the EC50 [2] was > 38 µM (not active) and the EC50 (Streptococcus) was 2.96 µM (active). The EC50 [3] was 110 µM (active) and the EC50 [4] was 4.73 µM (active).

In the case of O=C(N/N=C/c1ccccn1)c1cc([N+](=O)[O-])cc([N+](=O)[O-])c1, the IC50 (cells) is reported as 40.2 µM (active) and the AC50 [5] is reported as 6.54 µM (active).

With O=C(CC1C(=O)NCCN1Cc1ccc(-c2ccccc2)cc1)NCCc1ccccn1 (centres undefined) the EC50 [4] was 4.73 µM (active).

In the case of C=CC/N=c1\scc(-c2ccc(F)cc2)n1/N=C/c1ccccn1, the CC50 [6] is reported as > 40 µM (active).

For CC(=O)NC(c1cc(Cl)c2cccnc2c1O)C1CC1 (centres undefined), the AC50 (INS1) was 1.91 µM (active), the CC50 [6] was 5.47 µM (active) and the AC50 [7] was 3.26 µM (active).

With COc1cccc(N2C(=O)C(Cl)=C(N3CCN[C@@H](C)C3)C2=O)c1 the IC50 [8] was > 50 µM (inconclusive).

With Cc1cc([N+](=O)[O-])ccc1NC(=S)NC(=O)Cc1ccccc1 the IC50 (Beta-galactosidase) was > 66.6 µM (inactive).

For CSc1ncccc1C(=O)Nc1nc2ccc(Oc3ccccc3)cc2s1, the CC50 [6] was > 40 µM (active).

With Cc1cccc(N2C(=O)C(Cl)=C(N(C)C)C2=O)c1 the IC50 [8] was > 50 µM (inconclusive).

With COC(=O)c1ccc(N2CCN(C)CC2)c(NC(=O)COc2ccccc2)c1 the EC50 [4] was 5.96 µM (active).

In the case of CCN(CC)S(=O)(=O)c1cccc(-c2nnc(SCCOc3ccccc3C)o2)c1, the EC50 [9] is reported as 9.91 µM (active).

With CSc1ccc(N=Nc2c(C)[nH]n(C)c2=O)cc1 the IC50 (cells) was 15.6 µM (active).

In the case of CCOC(=O)C1(Cc2ccccc2)CCN(Cc2c[nH]nc2-c2ccccc2)CC1, the EC50 [4] is reported as 6.68 µM (active).

In the case of O=C(NC1CC1)C1=C[C@H](c2csc3ccccc23)C[C@H](OCc2ccc(CO)cc2)O1, the EC50 [4] is reported as 10.6 µM (active).

With O=c1oc(CCCO)cc2ccc(C#Cc3ccsc3)cc12 the CC50 [6] was > 40 µM (active).

In the case of COc1ccc(C(=O)/C=C/c2cccs2)c(OC(=O)c2cccc([N+](=O)[O-])c2)c1, the EC50 [10] is reported as 4.7 µM (active), the CC50 [6] is reported as 38.5 µM (active) and the EC50 (H4) is reported as 10.6 µM (active). The EC50 [11] was > 120 µM (not active).

With Clc1ccc(CN(CC2CCCO2)C(c2cccs2)c2nnnn2C2CCCC2)cc1 (centres undefined) the EC50 [9] was 6.56 µM (active).

For CCOC(=O)Cc1csc(NC(=O)COc2ccc3ccccc3c2)n1, the EC50 [9] was 2.56 µM (active).

For O=S(=O)(c1ccc(Cl)cc1)N1CCCC1c1nc2ccccc2s1 (centres undefined), the EC50 [9] was 6.61 µM (active).
